Assay results published in article PMC7199972 (PLoS ONE, 2020).
Residues, ends and D or L forms follow the SMILES beside them.

How the values were obtained:
[1] = Plasma stability of TA/SA γ-MSH peptides in reconstituted human plasma; format: in vitro ADME; details: 37°C
Experimental: For studies on the plasma stability of TA/SA γ-MSH, lyophilized citrated plasma from a pool of human donors was reconstituted in H2O as indicated by the manufacturer (# P9523, Sigma-Aldrich Chemie GmbH). Stability of human γ-MSH peptides was evaluated in fresh frozen human plasma (Interregional Blood Transfusion Swiss Red Cross Ltd, Epalinges, Swizerland). To this end, pooled samples of complete EDTA blood were centrifuged for 10 min at 1300 g, plasma was separated from buffy coat and erythrocytes and cleared by an additional 10 min centrifugation step at 1300 g. Cerebrospinal fluid pooled from ≥ 3 human donors was provided in liquid phase (# 991-19-P, Lee Biosolutions Inc., Maryland Heights, MO, USA). Aliquots of both body fluids were stored at -80°C until use. Samples of reconstituted plasma or CSF were thawed on ice, the pH of fresh frozen plasma was adjusted to 7.4 by addition of triethanolamine to a final concentration of 50 mM, and 45 μl aliquots were distributed to 1.5 ml Protein LoBind Tubes (Eppendorf AG, Hamburg, Germany). The γ-MSH synthetic peptides were pre-diluted in H2O to 20 μM, and 5 μl each were added on ice to 45 μl pre-laid samples of plasma or CSF. The γ-MSH starting concentration in degradation assays was thus 2 μM. Immediately after mixing, a first 5 μl aliquot for time point zero was removed, tubes were then transferred to a 37°C heat block, and further 5 μl aliquots were collected from plasma and CSF samples after various incubation times up to 68 h and 72.5 h, respectively. For control purposes, γ-MSH peptides were also diluted in H2O to a concentration of 2 μM and aliquots were removed after the corresponding incubation times at 37°C. All collected 5 μl aliquots were immediately diluted in 45 μl H2O and frozen on dry ice in 96 well V-bottom non-binding microplates (Greiner Bio-One Vacuette Schweiz GmbH, St. Gallen, Schweiz) to stop further degradation. After completion of degradation time courses, collection plates were stored at -80°C.
(§1) The residual TA/SA or human γ-MSH signaling activities were simultaneously analyzed on Glo-sensor and TA or human MC3R transfected HEK293T cells, respectively. […] Maximal luminescence values for the residual γ-MSH ligand activities were determined for all time points in the degradation time course, were baseline subtracted and normalized to the maximal luminescence value at time point zero for the same ligand in the same plate. All degradation time courses were performed in triplicate and read on three separate 96 well plates. […] Degradation curves were established by non-linear regression curve fit (least square fit) and half-lives determined from one phase decay curves. […]

[2] = Cerebrospinal fluid stability of γ-MSH peptides; format: in vitro ADME; details: pooled human CSF, 2 μM peptide, 37°C, up to 72 h, residual cAMP signaling on TA MC3R
Experimental: (§2) For studies on the plasma stability of TA/SA γ-MSH, lyophilized citrated plasma from a pool of human donors was reconstituted in H2O as indicated by the manufacturer (# P9523, Sigma-Aldrich Chemie GmbH). Stability of human γ-MSH peptides was evaluated in fresh frozen human plasma (Interregional Blood Transfusion Swiss Red Cross Ltd, Epalinges, Swizerland). To this end, pooled samples of complete EDTA blood were centrifuged for 10 min at 1300 g, plasma was separated from buffy coat and erythrocytes and cleared by an additional 10 min centrifugation step at 1300 g. Cerebrospinal fluid pooled from ≥ 3 human donors was provided in liquid phase (# 991-19-P, Lee Biosolutions Inc., Maryland Heights, MO, USA). […]
as §1

[3] = Plasma stability of human γ-MSH peptides in fresh frozen human plasma; format: in vitro ADME; details: 37°C, non-glycosylated synthetic peptides
Experimental: as §2, §1

[4] = supernatants of mock-transfected HEK293T cells (IRES GFP-plasmid only); details: human (HEK293T)
[5] = tested on: TA PC1/3; experiment: supernatants of HEK293T cells transfected with TA PCSK1 plasmid, 5 mM CaCl2, pH 5.5 (pH 4.1 to 8.1); details: human (HEK293T); Tyto alba alba enzyme
[6] = tested on: TA PC2 (with mouse 7B2); experiment: supernatants of HEK293T cells transfected with TA PCSK2 and mouse 7B2 plasmids, 5 mM CaCl2, pH 5.5 (pH 4.1 to 8.1); details: human (HEK293T); Tyto alba alba enzyme
[7] = Cerebrospinal fluid pooled from ≥ 3 human donors; details: 37°C, up to 72.5 h

CSCC[C@H](NC(=O)[C@@H](NC(=O)[C@@H](N)Cc1ccc(O)cc1)C(C)C)C(=O)N[C@@H](CO)C(=O)N[C@@H](Cc1c[nH]cn1)C(=O)N[C@@H](Cc1ccccc1)C(=O)N[C@@H](CCCNC(=N)N)C(=O)N[C@@H](Cc1c[nH]c2ccccc12)C(=O)N[C@@H](CC(N)=O)C(=O)N[C@@H](CCCCN)C(=O)N[C@@H](Cc1ccccc1)C(=O)NCC(N)=O [SA / TA γ2-MSH] (H-YVMSHFRWNKFG-NH2)
plasma half-life ([1]; reconstituted pooled human plasma, 2 μM peptide, residual cAMP signaling on TA MC3R, one-phase decay, triplicate): 0.45 h
half-life in human CSF [2]: > 7.5 h
stability in human cerebrospinal fluid ([2]; triplicate): stable for several hours

CSCC[C@H](NC(=O)[C@@H](NC(=O)[C@@H](N)Cc1ccc(O)cc1)C(C)C)C(=O)N[C@@H](CO)C(=O)N[C@@H](Cc1c[nH]cn1)C(=O)N[C@@H](Cc1ccccc1)C(=O)N[C@@H](CCCNC(=N)N)C(=O)N[C@@H](Cc1c[nH]c2ccccc12)C(=O)N[C@@H](CC(N)=O)C(=O)N[C@@H](CCCCN)C(=O)N[C@@H](Cc1ccccc1)C(=O)NCC(=O)N[C@@H](CCCNC(=N)N)C(=O)N[C@@H](CCCNC(=N)N)C(=O)N[C@@H](CC(N)=O)C(=O)N[C@@H](CO)C(=O)N[C@@H](CO)C(=O)N[C@@H](CO)C(=O)N[C@@H](CO)C(=O)N[C@@H](CO)C(=O)N[C@@H](CO)C(=O)N[C@@H](CO)C(=O)N[C@@H](CO)C(=O)N[C@@H](CO)C(=O)N[C@@H](CO)C(=O)N[C@@H](CO)C(=O)N[C@@H](CO)C(=O)N[C@@H](CO)C(=O)NCC(=O)NCC(=O)N[C@@H](Cc1c[nH]cn1)C(=O)O [TA γ3-MSH 13 S] (H-YVMSHFRWNKFGRRNSSSSSSSSSSSSSGGH-OH)
plasma half-life, fold longer than that of γ2-MSH ([1]; reconstituted human plasma): 70 fold
plasma half-life, fold longer than that of γ3-MSH containing 5 serines ([1]; reconstituted human plasma): > 6 fold
plasma half-life (t1/2) ([1]; reconstituted lyophilized citrated pooled human plasma, 2 μM peptide, up to 68 h, residual cAMP signaling on TA MC3R/Glo-sensor HEK293T (luminescence), one-phase decay, triplicate): > 30 h

CSCC[C@H](NC(=O)[C@@H](NC(=O)[C@@H](N)Cc1ccc(O)cc1)C(C)C)C(=O)NCC(=O)N[C@@H](Cc1c[nH]cn1)C(=O)N[C@@H](Cc1ccccc1)C(=O)N[C@@H](CCCNC(=N)N)C(=O)N[C@@H](Cc1c[nH]c2ccccc12)C(=O)N[C@@H](CC(=O)O)C(=O)N[C@@H](CCCNC(=N)N)C(=O)N[C@@H](Cc1ccccc1)C(=O)NCC(=O)N[C@@H](CCCNC(=N)N)C(=O)N[C@@H](CCCNC(=N)N)C(=O)N[C@@H](CC(N)=O)C(=O)N[C@@H](CO)C(=O)N[C@@H](CO)C(=O)N[C@@H](CO)C(=O)N[C@@H](CO)C(=O)NCC(=O)N[C@@H](CO)C(=O)N[C@@H](CO)C(=O)NCC(=O)N[C@@H](C)C(=O)NCC(=O)N[C@@H](CCC(N)=O)C(=O)O [human γ3-MSH (wt)] (H-YVMGHFRWDRFGRRNSSSSGSSGAGQ-OH)
plasma stability, fold increased over human γ2-MSH [3]: > 100 fold

Pyr-ERTKR-AMC (L-pyroglutamyl-(arginine-threonine-lysine-arginine)-7-amino-3-methylcoumarin)
not cleaved [4]: no activity across the entire pH range
cleaved bond [5]: R-AMC
cleaved bond [6]: R-AMC

YVMSHFRWNKFGRRNSSSSSGGH
not cleaved [7]: completely stable in CSF (up to 72 h)

YVMSHFRWNKFGRRNSSSSSSSSSSSSSGGH
not cleaved [7]: completely stable in CSF (up to 72 h)

YVMSHFRWNKFGRRNSSSSSSSSSSSSSSSSSSGGH
not cleaved [7]: completely stable in CSF (up to 72 h)
